Measurements published in patent publication US5122515A, “Nutrient composition containing dipeptides and method for administering the same” (priority 1990, dated 1992).

Experiments:
[1] = In vivo clearance of tyrosyl-arginine after intravenous bolus in rats; parameters: species or system Sprague Dawley rats; conditions: rat
Experimental: In vivo clearance was assessed in five large (370 g) mature (122 days old) Sprague Dawley rats. The animals were anaesthetised with sodium pentabarbitone and remained anaesthetised during the entire procedure. A large bolus of tyrosyl-arginine (82.1 2.8 μg/g rat, Mean SD) was injected intravenously into a central vein and rapid blood samples (n=11) (total volume=2.0 ml) were obtained through a central venous catheter over 20 minutes. We observed that tyrosyl-arginine was cleared rapidly by rats with an approximate half life of 30 seconds. There was a large and rapid rise in Arg concentration reaching a maximum after 2.5 min and falling to baseline levels after 20 minutes.

[2] = In vitro clearance of tyrosyl-arginine in human whole blood
Experimental: Supplementation of an intravenous nutrition solution with the dipeptide tyrosyl-arginine facilitates the infusion of the poorly soluble amino acid tyrosine. We have initiated the first investigations into the metabolism of exogenous tyrosyl-arginine (TryArg). In vitro clearance of tyrosyl-arginine, and the constituent amino acids arginine and tyrosine was assessed in blood from two healthy normal volunteers on five occasions. Whole blood was incubated with tyrosyl-arginine (initially 547 nmol/ml) at 37°°C. for 40 minutes. Throughout this period samples were taken to determine concentration of the dipeptide and individual amino acids.

| time of fall to baseline levels ([1]; iv) [min] | time to maximum concentration ([1]; iv) [min] | time over which the concentration, after its rise, fell to baseline [2] [h] | half-life ([1]; Sprague Dawley, 82.1 μg/g rat, anaesthetised rats, intravenous bolus of tyrosyl-arginine into a central vein, read-out: approximate half life (in vivo clearance) (converted)) [min] | time by which degradation was complete ([2]; human whole blood, 37°C) [h] | half-life at 547 nmol/ml ([2]; human, blood) [min] | concentration in whole blood (mean) ([2]; time 0 min, human whole blood incubated with tyrosyl-arginine (initially 547 nmol/ml) at 37°C) [µM] | concentration in whole blood (mean) ([2]; time 0.5 min, human whole blood incubated with tyrosyl-arginine at 37°C) [µM] | concentration in whole blood (mean) ([2]; time 1.0 min, human whole blood incubated with tyrosyl-arginine at 37°C) [µM] | concentration in whole blood (mean) ([2]; time 2.0 min, human whole blood incubated with tyrosyl-arginine at 37°C) [µM] | concentration in whole blood (mean) ([2]; time 5.0 min, human whole blood incubated with tyrosyl-arginine at 37°C) [µM] | concentration in whole blood (mean) ([2]; time 10.0 min, human whole blood incubated with tyrosyl-arginine at 37°C) [µM] | concentration in whole blood (mean) ([2]; time 20.0 min, human whole blood incubated with tyrosyl-arginine at 37°C) [µM] | concentration in whole blood (mean) ([2]; time 40.0 min, human whole blood incubated with tyrosyl-arginine at 37°C) [µM] | concentration in whole blood (mean) ([2]; time 60.0 min, human whole blood incubated with tyrosyl-arginine at 37°C) [µM] | concentration in whole blood (mean) ([2]; time 120.0 min, human whole blood incubated with tyrosyl-arginine at 37°C) [µM] | Compound |
| --- | --- | --- | --- | --- | --- | --- | --- | --- | --- | --- | --- | --- | --- | --- | --- | --- |
| 20 | 2.5 | 2 |  |  |  |  |  |  |  |  |  |  |  |  |  | N=C(N)NCCC[C@H](N)C(=O)O [Arg, arginine] |
|  |  | 2 |  |  |  |  |  |  |  |  |  |  |  |  |  | N[C@@H](Cc1ccc(O)cc1)C(=O)O [Tyr, tyrosine] |
|  |  |  | ~0.5 | ≤ 2 | 4.2 | 547 | 389.85 | 338.65 | 278.94 | 245.52 | 220.90 | 149.77 | 547.0 | 55.57 | 0 | N=C(N)NCCC[C@H](NC(=O)[C@@H](N)Cc1ccc(O)cc1)C(=O)O [Tyr--Arg, tyrosyl-arginine] |
